Data reported in ChEMBL document CHEMBL3085629, “Highly functionalized 2-oxopiperazine-based peptidomimetics: an approach to PAR1 antagonists” (2013).
The source made the active and inactive calls. No cut-off for these calls is given here.

How the values were obtained:
[1] = molecular target: T1, Proteinase-activated receptor 1 (Homo sapiens) (UniProt P25116); experiment: Antagonist activity at PAR1 in human platelet rich plasma assessed as inhibition of SFLLRN-induced platelet aggregation at 150 uM after 5 mins by aggregometric analysis relative to control
T1 sequence (whole entry): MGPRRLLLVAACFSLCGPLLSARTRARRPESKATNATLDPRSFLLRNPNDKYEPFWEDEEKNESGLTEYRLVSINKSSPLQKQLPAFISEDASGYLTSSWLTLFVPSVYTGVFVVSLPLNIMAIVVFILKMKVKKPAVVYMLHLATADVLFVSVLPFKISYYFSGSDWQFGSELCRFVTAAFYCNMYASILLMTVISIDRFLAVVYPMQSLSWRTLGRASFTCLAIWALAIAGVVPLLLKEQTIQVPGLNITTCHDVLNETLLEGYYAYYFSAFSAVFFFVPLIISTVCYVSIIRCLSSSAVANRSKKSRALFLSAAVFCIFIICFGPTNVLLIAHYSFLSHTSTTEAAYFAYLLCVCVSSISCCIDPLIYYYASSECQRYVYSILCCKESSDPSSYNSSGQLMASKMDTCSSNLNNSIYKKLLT

[2] = tested on: MDA-MB-231; experiment: Cytotoxicity against human MDA-MB-231 cells after 48 hrs by sulforhodamine B assay; type: functional; details: MDA-MB-231, 48 h
[3] = tested on: A549; experiment: Cytotoxicity against human A549 cells after 48 hrs by sulforhodamine B assay; type: functional; details: A549, 48 h
[4] = tested on: HT-29; experiment: Cytotoxicity against human HT-29 cells after 48 hrs by sulforhodamine B assay; type: functional; details: HT-29, 48 h

Row | Structure (SMILES) | inhibition [1] | GI50 [2] [µM] | GI50 [3] [µM] | GI50 [4] [µM]
1 | Cc1c(C)c(S(=O)(=O)/N=C(/N)NCCC[C@H]2C(=O)N(Cc3ccccc3)C[C@H]([C@H](Cc3cn(C(=O)OC(C)(C)C)c4ccccc34)NC(=O)OC(C)(C)C)N2CC(=O)OC(C)(C)C)c(C)c2c1OC(C)(C)C2 | Active | – | – | –
2 | Cc1c(C)c(S(=O)(=O)/N=C(/N)NCCC[C@H]2C(=O)NC[C@@H]([C@H](Cc3cn(C(=O)OC(C)(C)C)c4ccccc34)NC(=O)OC(C)(C)C)N2Cc2ccccc2)c(C)c2c1OC(C)(C)C2 | – | 4.55 | 5.55 | 3.78
3 | Cc1c(C)c(S(=O)(=O)/N=C(/N)NCCC[C@H]2C(=O)NC[C@@H]([C@H](Cc3ccccc3)NC(=O)OC(C)(C)C)N2Cc2ccccc2)c(C)c2c1OC(C)(C)C2 | – | 6.04 | 5.39 | 3.29
4 | Cc1c(C)c(S(=O)(=O)/N=C(/N)NCCC[C@H]2C(=O)NC[C@H]([C@H](Cc3cn(C(=O)OC(C)(C)C)c4ccccc34)NC(=O)OC(C)(C)C)N2CC(=O)OC(C)(C)C)c(C)c2c1OC(C)(C)C2 | – | 4.54 | 3.25 | 4.98
5 | CC(C)(C)OC(=O)NCCCC[C@@H]1N[C@H]([C@H](Cc2cn(C(=O)OC(C)(C)C)c3ccccc23)NC(=O)OC(C)(C)C)CNC1=O | inactive | 5.31 | 9.75 | 5.43
6 | CC(C)(C)OC(=O)CN1[C@@H](CCCCNC(=O)OC(C)(C)C)C(=O)N(Cc2ccccc2)C[C@H]1[C@H](Cc1cn(C(=O)OC(C)(C)C)c2ccccc12)NC(=O)OC(C)(C)C | inactive | – | – | –
7 | Cc1c(C)c(S(=O)(=O)/N=C(/N)NCCC[C@H]2C(=O)N(Cc3ccccc3)C[C@@H](CCc3cn(C(=O)OC(C)(C)C)c4ccccc34)N2Cc2ccccc2)c(C)c2c1OC(C)(C)C2 | Active | – | – | –
8 | COc1cccc2c1C(=O)c1c(O)c3c(c(O)c1C2=O)C[C@@](O)(C(=O)CO)C[C@@H]3O[C@H]1C[C@H](N)[C@H](O)[C@H](C)O1 [DOXORUBICIN] | – | 0.09 | 0.07 | 0.1
9 | Cc1c(C)c(S(=O)(=O)/N=C(/N)NCCC[C@H]2C(=O)NC[C@H]([C@H](Cc3ccccc3)NC(=O)OC(C)(C)C)N2Cc2ccccc2)c(C)c2c1OC(C)(C)C2 | – | 6.83 | 1.24 | 5.26
10 | CC(C)(C)OC(=O)NCCCC[C@H]1C(=O)NC[C@H]([C@H](Cc2cn(C(=O)OC(C)(C)C)c3ccccc23)NC(=O)OC(C)(C)C)N1Cc1ccccc1 | inactive | 2.92 | 4.86 | 4.58
11 | Cc1c(C)c(S(=O)(=O)/N=C(\N)NCCC[C@H]2C(=O)N(Cc3ccccc3)C[C@H]([C@H](Cc3ccccc3)NC(=O)OC(C)(C)C)N2Cc2ccccc2)c(C)c2c1OC(C)(C)C2 | Active | – | – | –
12 | Cc1c(C)c(S(=O)(=O)/N=C(/N)NCCC[C@H]2C(=O)NC[C@@H]([C@H](Cc3cn(C(=O)OC(C)(C)C)c4ccccc34)NC(=O)OC(C)(C)C)N2CC(=O)OC(C)(C)C)c(C)c2c1OC(C)(C)C2 | – | 4.87 | 7.68 | 2.92
13 | Cc1c(C)c(S(=O)(=O)/N=C(\N)NCCC[C@H]2C(=O)N(Cc3ccccc3)C[C@H]([C@H](Cc3c[nH]c4ccccc34)NC(=O)NCc3ccccc3)N2Cc2ccccc2)c(C)c2c1OC(C)(C)C2 | Active | – | – | –
14 | Cc1c(C)c(S(=O)(=O)/N=C(\N)NCCC[C@H]2C(=O)N(Cc3ccccc3)C[C@@H]([C@H](Cc3ccccc3)NC(=O)OC(C)(C)C)N2CC(=O)OC(C)(C)C)c(C)c2c1OC(C)(C)C2 | Active | – | – | –
15 | CC(C)(C)OC(=O)CN1[C@@H]([C@H](Cc2cn(C(=O)OC(C)(C)C)c3ccccc23)NC(=O)OC(C)(C)C)CNC(=O)[C@@H]1CCCCNC(=O)OC(C)(C)C | inactive | 2.29 | 4.57 | 3.09
16 | Cc1c(C)c(S(=O)(=O)/N=C(/N)NCCC[C@H]2C(=O)NC[C@H]([C@H](Cc3cn(C(=O)OC(C)(C)C)c4ccccc34)NC(=O)OC(C)(C)C)N2Cc2ccccc2)c(C)c2c1OC(C)(C)C2 | – | 4.44 | 4.89 | 3.78
17 | CC(C)(C)OC(=O)NCCCC[C@H]1C(=O)N(Cc2ccccc2)C[C@@H]([C@H](Cc2cn(C(=O)OC(C)(C)C)c3ccccc23)NC(=O)OC(C)(C)C)N1Cc1ccccc1 | inactive | 1.48 | > 10 | 3.83
18 | CC(C)(C)OC(=O)CN1[C@@H]([C@H](Cc2cn(C(=O)OC(C)(C)C)c3ccccc23)NC(=O)OC(C)(C)C)CN(Cc2ccccc2)C(=O)[C@@H]1CCCCNC(=O)OC(C)(C)C | inactive | 1.56 | > 10 | 4.44
19 | Cc1c(C)c(S(=O)(=O)/N=C(\N)NCCC[C@H]2C(=O)N(Cc3ccccc3)C[C@@H]([C@H](Cc3ccccc3)NC(=O)NCc3ccccc3)N2Cc2ccccc2)c(C)c2c1OC(C)(C)C2 | 57% | – | – | –
20 | Cc1c(C)c(S(=O)(=O)/N=C(\N)NCCC[C@H]2C(=O)N(Cc3ccccc3)C[C@@H]([C@H](Cc3c[nH]c4ccccc34)NC(=O)NCc3ccccc3)N2Cc2ccccc2)c(C)c2c1OC(C)(C)C2 | Active | – | – | –

The next lines start with results.

Row | inhibition [1] | Structure (SMILES) | GI50 [2] [µM] | GI50 [3] [µM] | GI50 [4] [µM]
21 | inactive | CC(C)(C)OC(=O)CN1[C@@H](CCCCNC(=O)OC(C)(C)C)C(=O)NC[C@H]1[C@H](Cc1cn(C(=O)OC(C)(C)C)c2ccccc12)NC(=O)OC(C)(C)C | 6.72 | 8.6 | 5.78
22 | inactive | CC(C)(C)OC(=O)NCCCC[C@H]1C(=O)N(Cc2ccccc2)C[C@H]([C@H](Cc2cn(C(=O)OC(C)(C)C)c3ccccc23)NC(=O)OC(C)(C)C)N1Cc1ccccc1 | 3.33 | > 10 | > 10
23 | Active | Cc1c(C)c(S(=O)(=O)/N=C(/N)NCCC[C@H]2C(=O)N(Cc3ccccc3)C[C@@H](CCc3ccccc3)N2Cc2ccccc2)c(C)c2c1OC(C)(C)C2 | – | – | –
24 | Active | Cc1c(C)c(S(=O)(=O)/N=C(/N)NCCC[C@H]2C(=O)N(Cc3ccccc3)C[C@@H]([C@H](Cc3cn(C(=O)OC(C)(C)C)c4ccccc34)NC(=O)OC(C)(C)C)N2CC(=O)OC(C)(C)C)c(C)c2c1OC(C)(C)C2 | – | – | –
25 | inactive | CC(C)(C)OC(=O)NCCCC[C@H]1C(=O)NC[C@@H]([C@H](Cc2cn(C(=O)OC(C)(C)C)c3ccccc23)NC(=O)OC(C)(C)C)N1Cc1ccccc1 | 4.58 | 5.56 | 4.45
26 | Active | Cc1c(C)c(S(=O)(=O)/N=C(/N)NCCC[C@H]2C(=O)N(Cc3ccccc3)C[C@H]([C@H](Cc3cn(C(=O)OC(C)(C)C)c4ccccc34)NC(=O)OC(C)(C)C)N2Cc2ccccc2)c(C)c2c1OC(C)(C)C2 | – | – | –
27 | Active | Cc1c(C)c(S(=O)(=O)/N=C(/N)NCCC[C@H]2C(=O)N(Cc3ccccc3)C[C@H](CCc3cn(C(=O)OC(C)(C)C)c4ccccc34)N2Cc2ccccc2)c(C)c2c1OC(C)(C)C2 | – | – | –
28 | inactive | CC(C)(C)OC(=O)NCCCC[C@@H]1N[C@@H]([C@H](Cc2cn(C(=O)OC(C)(C)C)c3ccccc23)NC(=O)OC(C)(C)C)CNC1=O | 5.56 | > 10 | 5.43
29 | Active | Cc1c(C)c(S(=O)(=O)/N=C(/N)NCCC[C@H]2C(=O)N(Cc3ccccc3)C[C@H](CCc3ccccc3)N2Cc2ccccc2)c(C)c2c1OC(C)(C)C2 | – | – | –
30 | Active | Cc1c(C)c(S(=O)(=O)/N=C(\N)NCCC[C@H]2C(=O)N(Cc3ccccc3)C[C@H]([C@H](Cc3ccccc3)NC(=O)NCc3ccccc3)N2Cc2ccccc2)c(C)c2c1OC(C)(C)C2 | – | – | –
31 | Active | Cc1c(C)c(S(=O)(=O)/N=C(/N)NCCC[C@H]2C(=O)N(Cc3ccccc3)C[C@@H]([C@H](Cc3cn(C(=O)OC(C)(C)C)c4ccccc34)NC(=O)OC(C)(C)C)N2Cc2ccccc2)c(C)c2c1OC(C)(C)C2 | – | – | –
32 | Active | Cc1c(C)c(S(=O)(=O)/N=C(\N)NCCC[C@H]2C(=O)N(Cc3ccccc3)C[C@@H]([C@H](Cc3ccccc3)NC(=O)OC(C)(C)C)N2Cc2ccccc2)c(C)c2c1OC(C)(C)C2 | – | – | –
33 | Active | Cc1c(C)c(S(=O)(=O)/N=C(\N)NCCC[C@H]2C(=O)N(Cc3ccccc3)C[C@H]([C@H](Cc3ccccc3)NC(=O)OC(C)(C)C)N2CC(=O)OC(C)(C)C)c(C)c2c1OC(C)(C)C2 | – | – | –
